The record followed here is patent US12139556B2, “Insect neuropeptides 6” (Solasta Bio Limited, priority 2022, dated 2024).

Common to all, as to assay type: in vivo
Data set [1] deals with Myzus persicae. The data set is described as follows: Leaf dip assay (IRAC susceptibility test method 019), mortality assessment. The following applies: unformulated or with Silwet-408 adjuvant; mortality assessed at 72, 96 and 120 hours; FIGS. 6-8. The method, then: The assay was carried out based on IRAC susceptibility test method 019 (irac-online.org/methods/aphids-adultnymphs/).
Fill a small 4 cm wide 3 cm high dish with a 1% agar treatment solution of the active chemical or control (ensuring 1 cm gap between the agar and the lid) and leave to set. Dip a 2.5 cm leaf disc into 3 ml of treatment solution allowing the treatment to coat the leaf. Leave the disc to dry for 1 hour and place onto the set agar. Place insects (M. persicae aphids) onto each of the leaf discs. Each unit is sealed with a close-fitting, ventilated lid. Place the agar dishes in a small plastic tray lined with moist tissue paper and ensure the water trays in the bottom of the incubator are filled with clean water and place within the incubator. An assessment of mortality is made at 72, 96 and 120 hours. Leaf dip assays were performed with SB-P-65, and compared to a negative control vehicle and a current commercial insecticide Spirotetramat. The activity of SB-P-65 is shown in FIGS. 6-8; SB-P-65 has good activity whilst being eco-friendly and targeted to specific pests unlike broad spectrum chemical insecticides such as Spirotetramat.

The next data set deals with bees. The data set is described as follows: Bee oral toxicity test adapted from OECD Test No. 247 (Bumblebee, Acute Oral Toxicity Test). As to conditions: % survival after 96 hours of application; FIG. 10. As for the experimental part:
Bee oral testing protocol was carried out adapted from OECD Test No. 247: Bumblebee, Acute Oral Toxicity Test. The toxicity of SB-P-65 was compared with a negative control of sucrose or vehicle, and with a current commercial insecticide Imidacloprid.

A further data set deals with Aphis fabae. The experiment in a line: Field trials (PGRO) on vining peas, naturally infested. As for the experimental part:
(§1) Field trials for peptide SB-P-65, unformulated, against various insects were conducted by third-party organisations PGRO and AgriScience.

The subject of another data set is Aphis gossypii. The experiment in a line: Field trials (AgriScience) on cotton and melon, naturally infested. The method, then: as §1
In data set [2] the test system is Myzus persicae. The experiment in a line: Field trials by third-party organisations. The method, then: as §1
[3] abbreviates: versus Stealth/Aphox, Teppeki/Aphox, Profil Extra, Hallmark Zeon.

On to `CC(C)[C@H](NC(=O)[C@@H](NC(=O)[C@H](CCCCN)NC(=O)[C@H](CCC(N)=O)NC(=O)[C@@H](N)CCCNC(=N)N)[C@@H](C)O)C(=O)N[C@@H](Cc1ccccc1)C(=O)N[C@@H](CO)C(=O)N[C@@H](CO)C(=O)N[C@@H](Cc1c[nH]c2ccccc12)C(=O)NCC(N)=O` [SB-P-65, [Hy]-RQKTVFSSWG-[NH2]], for which, in the data set on Myzus persicae [1], the “activity against Myzus persicae (mortality) in leaf dip assay” value was “good activity”. For the same compound, in the data set with bees, the “toxicity to bees (oral), compared to Imidacloprid” value is reported as “far lower toxicity”. For the same compound, in the data set with Aphis fabae (unformulated, vining peas, real-world conditions, FIGS. 11, 14), the “efficacy in field trials against Aphis fabae” value was “good efficacy”. The “efficacy relative to commercial insecticides, Aphis fabae field trials” value with Aphis fabae (setting [3]) is recorded as “comparably to commercial insecticides”. The “efficacy in field trials against Aphis gossypii” value in the data set with Aphis gossypii (unformulated, cotton, melon, real-world conditions, FIGS. 12, 13) is “good efficacy”. Also, the “efficacy relative to commercial insecticides, Aphis gossypii field trials” value with Aphis gossypii (setting [3]) is recorded as “comparably to commercial insecticides”. In addition, the “efficacy in field trials against Myzus persicae” value with Myzus persicae [2] (unformulated, real-world conditions) is on record as “good efficacy”. Further, the “efficacy relative to commercial insecticides, Myzus persicae field trials” value in the data set on Myzus persicae [2] (setting [3]) is listed as “comparably to commercial insecticides”.
